“Also recorded” adds a separate entry of the source. Read-outs that look alike come from different tables or passages of the source.
How the values were obtained:
[1] = test system: SUM159 PTEN-siRNA and SUM159 Ad-FAK cells; assay: Repertaxin on SUM159 PTEN-siRNA and SUM159 Ad-FAK cells (western, immunofluorescence, MTT, ALDEFLUOR); assay type: cell-based, human; conditions: for FAK and AKT activity / FOXO3A activation in cells with PTEN deletion or FAK overexpression: 100 nM, two days
Description: Cell viability. […] Nuclei were counterstained with DAPI/antifade (Invitrogen).
ALDEFLUOR assay. The ALDEFLUOR kit (StemCell technologies) was used to isolate the population with high ALDH enzymatic activity using a FACStarPLUS (Becton Dickinson) as previously described (Ginestier et al. Cell Stem Cell 1:555-567, herein incorporated by reference in its entirety). In order to eliminate cells of mouse origin from the xenotransplanted tumors, cell population was stained with an anti-H2Kd antibody (BD biosciences, 1/200, 20 min on ice) followed by staining with a secondary antibody labeled with phycoerythrin (PE) (Jackson labs, 1/250, 20 min on ice).
(§1) Western blotting. Cells were lysed in a laemmli buffer and loaded onto SDS-polyacrylamide gels. Blots were incubated with the respective primary antibodies diluted in TBST (containing 0.1% Tween20 and 2% BSA) either overnight at 4o, or 2 hours at room temperature. Blots were washed and incubated with appropriate secondary antibodies (GE Healthcare, UK) and detected using SuperSignal West Pico Chemiluminescent Substrate (Pierce).
(§2) Immunostaining. For immunofluorescent staining, sorted CXCR1-positive cells were fixed with 95% methanol at −20° C. for 10 minutes. Cells were rehydrated in PBS and incubated with respective antibodies at room temperature for 1 hour. Primary antibodies used were P-FAK (1:50, Cell Signaling Technology), P-AKT (1:300, Cell Signaling Technology), and FOXO3a (1:250, Cell Signaling Technology). Slides were then washed and incubated 30 minutes with PE conjugated secondary antibodies (Jackson labs). The nuclei were counterstained with DAPI/antifade (Invitrogen) and coverslipped. […] Immunohistochemistry for the detection of ALDH1 (1:100, BD biosciences), P-FAK, P-AKT, FOXO3a expression was done on paraffin section (Ginestier et al. Am. J Pathol. 161:1223-1233, herein incorporated by reference in its entirety). Staining was done utilizing the Histostainplus kit (Zymed laboratories). Diaminobenzidine (DAB) or 3-amino-9-ethylcarbazole (AEC) was used as chromogen and sections were counterstained with hematoxylin.
Virus infection. […] All lentiviral constructs were prepared by the University of Michigan Vector. An adenoviral construct for the overexpression of FAK (Ad-FAK-GFP) was also utilized (Luo et al. Cancer Res. 69:466-474, herein incorporated by reference in its entirety). Cells infection with different vectors was performed as previously described (Charafe-Jauffret et al. Cancer Res. 69:1302-1313, herein incorporated by reference in its entirety). Efficiency of infection was verified by measuring the percentage of DsRed or GFP expressing cells.

[2] = test system: CD44+/CD24- cell population of MC1, UM2, UM3 xenografts; assay: CD44+/CD24- cells in treated tumors (flow cytometry); design: species or system NOD/SCID mice; conditions: mouse, in vivo
Procedure: (§3) Animal model. […] Cells from these tumors were transplanted orthotopically in the humanized cleared fat-pad of NOD/SCID mice, without cultivation in vitro. […] 50,000 cells from each xenotransplants were injected in the humanized fat pad of NOD/SCID mice and monitored the tumor growth. […] The animals were euthanized when the tumors were approximately 1.5 cm in the largest diameter, to avoid tumor necrosis and in compliance with regulations for use of vertebrate animal in research. A portion of each fat pad injected was fixed in formalin and embedded in paraffin for histological analysis. The rest of the tumor cells were re-implantated into secondary NOD/SCID mice. Serial dilutions of cells were utilized for the re-implantation with injection of 10,000, 1,000, and 100 cells for each treated tumor.
Flow cytometry analysis. […] CD95/FAS staining were performed utilizing an anti-CD95 labeled APC (1:20, BD biosciences). […] Fresh cells were stained with 1 μg/ml PI (Sigma) for 5 min for viability.

SUM159 cell line = assay: MTT assay, cell growth / cell viability of SUM159 cells
Procedure: After 4 days of treatment, the effect on cell growth was analyzed using the MTT assay (FIG. 5A) and on the cancer stem cell population using the ALDEFLUOR assay (FIG. 5B).

[3] = test system: FAK Tyr397 and AKT Ser473 phosphorylation; assay: Western blotting of FAK/AKT activation in HCC1954; assay type: cell-based, human; conditions: 100 nM, two days
Procedure: as §1

[4] = test system: phospho-FAK and phospho-AKT; assay: Immunofluorescence staining of p-FAK and p-AKT in SUM159 cells; assay type: cell-based, human; conditions: for phospho-FAK and phospho-AKT expression (immunofluorescence): sorted CXCR1-positive cells
Procedure: The non-treated SUM159 cells presented 80% of cells positive in the cytoplasm for FOXOA3. […] The change in FOXOA3 cellular localation from the cytoplasm to the nucleus indicates an activation of FOXOA3 protein.
as §2

[5] = test system: ALDEFLUOR-positive population of HCC1954; assay: ALDEFLUOR assay on HCC1954 cells in vitro; assay type: cell-based, human; conditions: three days, repertaxin 100 nM, antibodies 10 μg/ml
Procedure: ALDEFLUOR assay. […] In order to eliminate cells of mouse origin from the xenotransplanted tumors, cell population was stained with an anti-H2Kd antibody (BD biosciences, 1/200, 20 min on ice) followed by staining with a secondary antibody labeled with phycoerythrin (PE) (Jackson labs, 1/250, 20 min on ice).

[6] = test system: cells from primary tumors SUM159, MC1, UM2, UM3; assay: Re-implantation of cells from treated tumors into secondary mice; assay type: in vivo, NOD/SCID mice; conditions: for secondary tumor formation / regrowth from serial dilutions of treated primary tumors: secondary NOD/SCID mice, no further treatment
Procedure: as §3, with “Serial dilutions of cells were utilized for the re-implantation with injection of 10,000, 1,000, and 100 cells for each treated tumor.” left out

[7] = phase I and phase II clinical trials, cited from earlier work
MDA-MB-453 cells = assay: MTT assay, cell viability of MDA-MB-453 cells; assay type: cell-based, human; conditions: MDA-MB-453 (PTEN mutation), repertaxin 100 nM
Description: Cell viability. […] After one day, treatment with repertaxin was started. […]. […] Nuclei were counterstained with DAPI/antifade (Invitrogen).

CC(C)Cc1ccc([C@@H](C)C(=O)NS(C)(=O)=O)cc1 [Repertaxin]
ALDEFLUOR-positive population of cells with PTEN deletion or FAK overexpression [1]: did not alter the proportion of ALDEFLUOR-positive SUM159 PTEN knockdown cells | FAK and AKT activity / FOXO3A activation in cells with PTEN deletion or FAK overexpression [1]: did not induce FOXO3A activation | FAK and AKT activity / FOXO3A activation in cells with PTEN deletion or FAK overexpression ([1]; listed as repertaxin): PTEN knockdown blocked the effect of repertaxin treatment on FAK and AKT activity; also recorded: PTEN deletion and FAK overexpression blocked the effect of repertaxin treatment on FAK and AKT activity | cell viability (MTT) of cells with PTEN deletion or FAK overexpression ([1]; 3 days of treatment): did not display any decrease in cell viability; also recorded: developed resistance to repertaxin | ALDEFLUOR-positive population of cells with PTEN deletion or FAK overexpression ([1]; listed as repertaxin): maintenance of the ALDELFUOR-positive populations | percent of CD44+/CD24- cells in residual tumors [2]: reduction | viability at 0.1 µM (SUM159 cell line; Homo sapiens, SUM159, 120 h, read-out: cells remaining viable / cell viability (MTT)): 3% | cell viability over time (one, three, five days) (SUM159 cell line; SUM159, repertaxin 100 nM): loss of cell viability beginning three days after treatment; also recorded: decrease in cell viability was observed after 3 days of treatment | FAK Tyr397 and AKT Ser473 phosphorylation (western blot) [3]: decrease in FAK Tyr397 and AKT Ser473 phosphorylation | FAK Tyr397 and AKT Ser473 phosphorylation (western blot) ([3]; listed as repertaxin): decrease in FAK Tyr^397 and AKT Ser^473 phosphorylation | p-FAK and p-AKT (immunofluorescence) ([4]; SUM159, 100 nM, 2 days): complete inactivation | phospho-FAK and phospho-AKT expression (immunofluorescence) [4]: disappearance of phospho-FAK | phospho-FAK and phospho-AKT expression (immunofluorescence) ([4]; listed as repertaxin): dramatic decrease of phospho-FAK and phospho-AKT expression | ALDEFLUOR-positive population [5]: significant reduction | reduction in tumor growth in secondary mice compared to cells from control or docetaxel-treated animals ([6]; equal numbers of cells injected): 2-5 fold | Tumors/Injections ([6]; number of cells injected 100): 0/9 | Tumors/Injections ([6]; number of cells injected 250): 0/2 | Tumors/Injections ([6]; number of cells injected 500): 1/3 | Tumors/Injections ([6]; number of cells injected 1,000): 4/8 | Tumors/Injections ([6]; number of cells injected 2,500): 2/2 | Tumors/Injections ([6]; number of cells injected 5,000): 2/2 | Tumors/Injections ([6]; number of cells injected 10,000): 4/4 | secondary tumor formation / regrowth from serial dilutions of treated primary tumors [6]: reduced tumor growth in secondary recipients; also recorded: only higher numbers of cells | secondary tumor formation / regrowth from serial dilutions of treated primary tumors ([6]; listed as Reperatxin): delayed secondary tumors which were significantly smaller in size | toxicity in clinical studies [7]: lack of toxicity | toxicity in clinical studies ([7]; listed as Repartaxin): little toxicity | cell viability (MTT) (MDA-MB-453 cells): no effect; also recorded: did not have any effect on cell viability | cell viability (MTT) (MDA-MB-453 cells; listed as repertaxin): did not effect the viability
